The source of these data is patent US10350216B2, “Methods of treating, preventing and diagnosing leukemia and other blood diseases and disorders” (The Trustees of Columbia University in the City of New York, priority 2013, dated 2019).

Series [1] deals with βcat(ex3)osb mice. In words: DBZ (γ-secretase inhibitor) treatment of βcat(ex3)osb mice: blood counts, flow cytometry, histology, survival. In kind it is in vivo. The procedure: (§1) […] DBZ is cell-permeable, selective, nontransition sate and noncompetitive inhibitor of the γ-secretase complex. DBZ was synthesized to greater than 99.9% purity as assessed by LC/MS (Syncom) and suspended in a 0.5% Methocel E4M (wt/vol, Colorcon) and 0.1% (vol/vol) Tween-80 (Sigma) solution (van Es et al., 2005). Immediately before intraperitoneal injection, DBZ was sonicated for 2 minutes to achieve a homogenous suspension.
For hematological measurements, blood was collected by cardiac puncture. Peripheral blood cell counts were performed on a FORCYTE Hematology Analyzer (Oxford Science Inc.). For morphological assessment, peripheral blood smears were stained with Wright-Giemsa stain (Sigma-Aldrich) for 10 minutes followed by rinsing in dH2O for 3 minutes. Images were taken using a 60× objective on a Leica microscope outfitted with camera.
Freshly isolated bone marrow cells and spleen cells were resuspended in flow-staining buffer (PBS plus 2% FBS) and the primary conjugated antibodies were added. After 30 minutes incubation at 4° C., the cells were then washed twice before flow cytometry analysis. The following monoclonal antibodies conjugated with fluorescein isothiocyanate (FITC), Allophycocyanin (APC) phycoerythrin (PE), PE-Cy7, APC-CY7, Pacific Blue, and Alexa 700 were used: CD117 (c-kit; 2B8), Sca-1 (D7), Mac-1α (M1/70), Gr-1(RB6-8C5), TER-119, (Ly-76) B220 (CD45R), CD19 (ID3), IgM (R6-60.2), CD3 (17A2), CD4 (RM4-5), CD8a (53-6.7), CD34 (RAM34), CD45 (30-F11), CD31 (MEC 13.3), CD16/CD32 (FcγRII/III; 2.4G2), CD135 (A2F10.1), CD150 (9D1), CD71 (C2), CD45.2 (104), CD45.1 (A20), F4/80, non-phospho (Active) β-Catenin (S33/S37/T41) antibody, IL-7Rα (SB199), Jagged-1 (C-20) and (Cell Signaling; D13A1). Seven-color flow cytometry acquisition was performed using a LSR II flow cytometer (Becton Dickinson) and analysis using FLO-JO software (Treestar, Inc). Cells were gated for size, shape and granularity using forward and side scatter parameters. The positive populations were identified as cells that expressed specific levels of fluorescence activity above the nonspecific auto fluorescence of the isotype control. Nonspecific binding was reduced by preincubation with unconjugated (2.4G2). Osteoblasts from MDS/AML patients or healthy subjects were identified as CD34−/Lin−OCN+ cells, (OCN: osteocalcin an osteoblast-specific protein used for isolation of live osteoblastic cells). For Flow sorting bone marrow, spleen and thymus cells were resuspended in flow staining buffer at 1×10^6/ml and labeled with the appropriate conjugated antibodies. After 30 minutes incubation, cells were washed twice using flow buffer. Flow sorting was performed using FACSAria (Becton Dickinson). Sorted populations were subsequently cultured or stored in RLT buffer at −80° C. for later extraction of RNA. Fluorescence intensity plots were presented in log scale. All flow cytometry data were representative of five independent experiments.
Bone marrow biopsies were fixed overnight in 10% neutral formalin solution, decalcified embedded in paraffin and sectioned at 5 μm per standard laboratory protocol. Sections were stained for β-catenin using a monoclonal antibody (1:1000, BD Transduction Lab) or for Runx2 using a polyclonal antibody (1:100 dilution, Santa Cruz) on an automated Ventana Discovery XT (Tuscon, Ariz.) platform according to manufacturer's instructions. Immune complexes formed were developed using a DAB Map Kit (Ventana, Tuscon, Ariz.). Murine long bones, spleen and liver were collected from one month old mice, fixed overnight in 10% neutral formalin solution, embedded in paraffin, sectioned at 5 μm, and stained with haematoxylin and eosin (H&E). For immunohistochemistry, specimens were incubated with CD-117 (C-kit; Abeam), CD13 (Santa Cruz) or Myeloperoxidase (MPO) antibodies after an antigen retrieval step and blocking of endogenous peroxidase with 3% H2O2. […]
In general terms: In flow cytometry, cells or beads pass a laser one at a time.

Another series deals with wild type mice. In words: DBZ treatment of wild type mice: peripheral blood counts and bone marrow cellularity. In kind it is in vivo, mouse. The conditions noted are these: DBZ 2 μmol/kg body weight daily for 10 days. As to the method:
as §1
For hematological measurements, blood was collected by cardiac puncture. Peripheral blood cell counts were performed on a FORCYTE Hematology Analyzer (Oxford Science Inc.). For morphological assessment, peripheral blood smears were stained with Wright-Giemsa stain (Sigma-Aldrich) for 10 minutes followed by rinsing in dH2O for 3 minutes. Images were taken using a 60× objective on a Leica microscope outfitted with camera. […]
Hematological measurements, peripheral blood morphology, flow cytometry, PCR, and histological analysis were performed as described in Example 1.

The test system of series [2] is βcat(ex3)osb mice. In words: Six-week treatment of βcat(ex3)osb mice with anti-Jagged1 antibody or DBZ (Example 17). In kind it is in vivo. As to the method:
The following endpoints are analyzed: survival, complete hematopoietic profile in the marrow, leukemia presence in peripheral blood, bone marrow, spleen and liver, potential end organ toxicity, and gene expression profiling of Notch targets Hes1, Hes5, Hey1, and Hey2, and the Hes1 targets, Cebpα and Pu.1.

In series [3] the test system is LSK cells cultured in the presence of primary osteoblasts. In words: Real-time PCR of Hes1, Pu.1 and CEBPα in LSK+ population co-cultured with primary osteoblasts and treated with Wnt3a. The conditions noted are these: Wnt3a 50 ng/ml for 24 hours, co-culture with primary osteoblasts. It counts as cell-based, mouse. As to the method: (§2) In FIGS. 57B and C, the vehicle treated is represented by the left hand bar and the Wnt3a treated is represented by the right hand bar. n=4 replicates, *p<0.05 versus vehicle. Results are mean±SD.
(§3) Total RNA was isolated from LSK or hematopoietic cells using RNAeasy micro Plus kit (Quiagen). Total RNA from long bones was isolated using TRIzol reagent. Quantitative real-time PCR was performed using the SYBR Green Master Mix (Bio-Rad) as previously described (Rached et al., 2010a). β-Actin was used as endogenous control. Gene expression in LT-HSCs, ST-HSCs and MPPs was performed using the Power Syber Green Cells-to-CT kit (Ambion Life Technologies)
(In qPCR the cycle at which signal appears reflects the starting amount.)

Series [4] concerns primary, calvaria-derived osteoblasts. In words: Real-time PCR of Jagged-1 and Magp-2 in primary osteoblasts treated with Wnt3a. It counts as cell-based, mouse. The settings on record: Wnt3a 50 ng/ml for 24 hours, versus vehicle. As to the method: as §2, §3
For flow cytometry analysis, osteoblasts were identified from the digested bone samples as a population of CD34^−Lin^−Ocn^+ cells, where OCN (osteocalcin) is an osteoblast-specific, non-nuclear protein commonly used for isolation of live osteoblastic cells (Eghbali-Fatourechi et al., 2005; Rubin et al., 2011; Manavalan et al., 2012). For experiments in mice, all gene expression studies were repeated using calvaria-derived cells a population rich in committed osteoblast progenitors and routinely used as osteoblast-representative. Primary murine osteoblasts were prepared from calvaria of 2 day-old pups as previously described (Ghosh-Choudhury et al., 1994; Rached et al., 2010b). […]

Where [5] appears, read: βcat(ex3)osb mice, 10 days DBZ, bone marrow and spleen.
Where [6] appears, read: βcat(ex3)osb mice, DBZ 2 μmol/kg body weight daily for 10 days.
Where [7] appears, read: βcat(ex3)osb mice, six weeks treatment.

As for `C[C@H](NC(=O)Cc1cc(F)cc(F)c1)C(=O)NC1C(=O)N(C)c2ccccc2-c2ccccc21` (stereo partly drawn) [DBZ, (2S)-2-[2-(3,5-difluorophenyl)-acetylamino]-N-(5-methyl-6-oxo-6,7-dihydro-5H-dibenzo[b,-d]azepin-7-yl)-propionamide], in the series on βcat(ex3)osb mice [1] (mice treated 10 days with DBZ, intestine), the “Toxic effects (intestinal architecture, goblet cell metaplasia, PAS staining)” value is reported as “without any toxic effects”. Also, in the series on βcat(ex3)osb mice [1] (βcat(ex3)osb mice treated with DBZ versus vehicle), the “Survival (Kaplan-Meier)” value is “increased survival”. For the same compound, in the series with βcat(ex3)osb mice [1] (βcat(ex3)osb mice, 10 days DBZ), the “Blasts and hypersegmented neutrophils in the blood; infiltration with immature and atypical myeloid cells and atypical micro-megakaryocytes in bone marrow and spleen” value is recorded as “not observed”; the Bone marrow cellularity result is given as “not affected”; the “LSK and lymphoid-biased progenitors in the bone marrow and LSK/FcgRII/III subset of myeloid progenitors in spleen and bone marrow” value is recorded as “returned to normal levels”; the Liver histology entry is given as “appeared normal”. Moreover, the “Myeloperoxidase staining in bone marrow, spleen and liver” value with βcat(ex3)osb mice [1] (βcat(ex3)osb mice, 10 days DBZ) was “identical to that of wild type animals”. For the same compound, in the series with βcat(ex3)osb mice [1] (setting [5]), the “Compromised B-lymphopoiesis” value was “partially rescued”; the “Defects in the myeloid lineage, erythroid cells, LSK and LT-HSCs populations” value was “reversed”. Further, the Osteopetrotic phenotype entry with βcat(ex3)osb mice [1] (βcat(ex3)osb mice, 10 days DBZ, long bone sections) is listed as “not affected”. The “Anemia, peripheral monocytosis, neutrophilia and lymphocytopenia” value with βcat(ex3)osb mice [1] (βcat(ex3)osb mice, 10 days DBZ, peripheral blood) was “reversed”. In the series with βcat(ex3)osb mice [1] (setting [6]), the “BA (basophils)” value stood at 0.67 ± 0.7%, the “BM cell per femur” value is given as 18.6 ± 3.5 10^5, the “EO (eosinophils)” value is on record as 1.87 ± 1.6% and the HB was 11.2 ± 0.9 g/dL. Also, in the series with βcat(ex3)osb mice [1] (setting [6]), the HCT is on record as 36.75 ± 3.2%, the “LY (lymphocytes)” value is listed as 49.76 ± 4.3%, the “MO (monocytes)” value is given as 7.46 ± 1.2% and the NE worked out at 42.21 ± 4.8%. Besides, in the series on βcat(ex3)osb mice [1] (setting [6]), the Platelet is reported as 650 ± 113.1 10^3/μl, the RBC is 8.06 ± 0.5 ×10^6/μl and the WBC is 3.1 ± 0.5 ×10^3/μl. Also, in the series on wild type mice, the “BA (basophils)” value is listed as 0.5 ± 0.2%, the “BM cell per femur” value is 71.5 ± 4.3 10^5, the “EO (eosinophils)” value is recorded as 1.55 ± 0.2% and the HB was 12.8 ± 0 g/dL. Moreover, in the series with wild type mice, the HCT stood at 45.90 ± 2.5%, the “LY (lymphocytes)” value is listed as 78.54 ± 3.2%, the “MO (monocytes)” value stood at 5.01 ± 0.6% and the NE worked out at 14.41 ± 3.2%. Also, in the series on wild type mice, the Platelet was 1119.5 ± 68.5 10^3/μl and the WBC is recorded as 3.54 ± 0.5 ×10^3/μl. In addition, the “Toxic effect on the intestines” value with βcat(ex3)osb mice [2] (mouse, in vivo) is recorded as “no toxic effect”. Further, in the series on βcat(ex3)osb mice [2] (setting [7]), the “Anemia, peripheral monocytosis, neutrophilia and lymphocytopenia and defects in the myeloid lineage, erythroid cells, LSK and LT-HSCs populations in the bone marrow” value is “reversal”; the “Expression of Notch targets Hes1, Hes5, Hey1, and Hey2, and the Hes1 targets, Cebpα and Pu.1” value is “decrease”; the “Invasion of myeloid cells” value was “no invasion”; the “LSK and lymphoid-biased progenitors in the bone marrow and LSK/FcgRII/III subset of myeloid progenitors in spleen and bone marrow” value is “return to normal levels”. For the same compound, in the series with βcat(ex3)osb mice [2] (setting [7]), the “Myeloperoxidase staining in bone marrow, spleen and liver” value was “identical to that of control animals”; the Survival result is “increased survival”.
For Wnt3a, the “Notch signaling in LSK cells (Hes1, Pu.1 and CEBPα expression)” value in series [3] is “stimulated”. In series [4], the “Expression of Jagged-1 and Magp-2” value is “upregulated”.
